Assay results as given in US9322032B2, “Arabidopsis ring E3 ubiquitin ligase for promotion of plant germination” (INDUSTRY-ACADEMIC COOPERATION FOUNDATION, YONSEI UNIVERSITY, priority 2011, dated 2016).

T1: E3 ubiquitin ligase (Arabidopsis thaliana, UniProt Q9M022)
T1 construct: the ORF of the AtAIRP2 gene was subcloned into pMAL-X vector in-frame with MBP; made in house; host or cells: Escherichia coli BL21-CodonPlus (DE3) RIL
T1 sequence (Q9M022 1-242): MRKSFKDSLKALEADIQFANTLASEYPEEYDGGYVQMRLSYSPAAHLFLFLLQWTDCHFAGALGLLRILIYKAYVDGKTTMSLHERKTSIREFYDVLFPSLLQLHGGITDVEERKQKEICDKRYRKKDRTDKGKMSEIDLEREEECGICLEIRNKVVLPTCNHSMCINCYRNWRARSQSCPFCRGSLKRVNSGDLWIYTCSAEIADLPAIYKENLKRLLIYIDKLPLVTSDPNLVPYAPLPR


Tests used:
AtAIRP2 gene promoter = assay: Histochemical GUS assay of AtAIRP2 promoter activity; type: in vivo, Arabidopsis thaliana; conditions: 100 μM ABA, 3 hours
Protocol: […] After removal of the acetone, the plant was washed 3 times with rincing solution containing 50 mM NaPO4, 1 mM K3Fe(CN)6, and 1 mM K4Fe(CN)6, and immersed in 2 mM X-Gluc (5-bromo-4-chloro-3-indolyl glucuronide, sigma) and vacuumed for 1 min. After staining at 37° C. in the dark until the color was changed, the plant was incubated in 90% ethanol to remove chlorophyll.
(§1) The AtAIRP2 gene expressions in various abiotic stresses were analyzed by RT-PCR. After treatments of low-temperature (12 hours and 24 hours), drought (1 hour and 2 hours), salt (1.5 hour and 3 hours) and ABA hormone (1.5 hour and 3 hours) stresses, RNA from each of samples was extracted to analyze the gene expression patterns. As a result, it was determined that the gene expression levels of stress treatments were increased than those of non-stress treatments, thereby the AtAIRP2 gene expression is induced by salt, low-temperature, drought and ABA hormone stresses (FIG. 1). In addition, the AtAIRP2 protein expressions in various abiotic stresses were analyzed by histochemical GUS assay. After treatments of ABA hormone (3 hours) and drought (2 hours) stresses, the degree of the staining was analyzed. As a result, it was determined that the degrees of the staining of stress treatments were increased than those of before the stress treatments (FIG. 2).

AtAIRP2 gene = AtAIRP2 gene expression by RT-PCR after stress treatment; type: in vivo, Arabidopsis thaliana; conditions: 100 μM ABA, 1.5 hour and 3 hours, 2-week-old wild type seedlings
Protocol: In order to determine expressions of the AtAIRP2 gene to drought stress, the wild type Arabidopsis thaliana seedlings which were grown on medium for 2 weeks were exposed in the air, and sampled after 1 hour and 2 hours. In order to determine expressions of the AtAIRP2 gene to salt stress, the wild type Arabidopsis thaliana seedlings which were grown on medium for 2 weeks were treated with 300 mM sodium chloride, and sampled after 1.5 hour and 3 hours. In order to determine expressions of the AtAIRP2 gene to low-temperature stress, the wild type Arabidopsis thaliana seedlings which were grown on medium for 2 weeks were incubated at 4° C. for 12 hours and 24 hours, and sampled. […]
as §1, with “After treatments of low-temperature (12 hours and 24 hours), drought (1 hour and 2 hours), salt (1.5 hour and 3 hours) and ABA hormone (1.5 hour and 3 hours) stresses, RNA from each of samples was extracted to analyze the gene expression patterns.” left out

E3 ubiquitin ligase = target: T1, E3 ubiquitin ligase; assay: Self-ubiquitination assay (Western blot, anti-MBP and anti-ubiquitin); type: biochemical; conditions: with UBA1, UBC8, ubiquitin, 30° C., 1 hour
Protocol: For the enzymatic activity analysis of the AtAIRP2 protein, the ORF of the AtAIRP2 gene was subcloned into pMAL-X vector in-frame with MBP (maltose-binding protein). 40 mM Tris-HCI, pH 7.5, 5 mM MgCl2, 2 mM ATP, 2 mM dithiothreitol (DTT), 300 ng/μL ubiquitin (Sigma), 25 μM MG132 (A.G. Scientific Inc.), 500 ng UBA1 (ABRC, www.arabidopsis.org), 500 ng UBC8 (ABRC, www.arabidopsis.org) and 500 ng MBP-AtAIRP2 were added to each of tubes and incubated at 30° C. After addition of sample buffer solution, the resultant was heated at 100° C. for 5min, and performed by Western blot using anti-MBP (New England Bio Labs) and anti-ubiquitin (Santa Cruz) antibodies.
Maltose-binding protein (MBP) was bound to the AtAIRP2 proteins. Then, the MBP-AtAIRP2 was incubated with UBA1, UBC8, ubiquitin and AtAIRP2 at 30° C. for 1 hour to perform Self-Ubiquitination, and performed by Western blot using MBP- and ubiquitin-specific antibodies to analyze changes in the protein levels. As a result, it was determined that the molecular weight of the AtAIRP2 protein was increased through Western blot using anti-MBP antibody, and the increase was induced due to ubiquitin (FIG. 3).

| Molecule | GUS signals (AtAIRP2 promoter activity) (AtAIRP2 gene promoter) | AtAIRP2 gene expression (AtAIRP2 gene) | enzymatic activity of E3 ubiquitin ligase (E3 ubiquitin ligase) |
| --- | --- | --- | --- |
| CC1=CC(=O)CC(C)(C)C1(O)/C=C/C(C)=C\C(=O)O (stereo not drawn) [ABA] | markedly induced | induced | – |
| AtAIRP2 protein: RING protein encoded by At5g01520 (SEQ ID NO:2), tested as maltose-binding protein fusion (protein, left off: large carriers) MRKSFKDSLKALEADIQFANTLASEYPEEYDGGYVQMRLSYSPAAHLFLFLLQWTDCHFAGALGLLRILIYKAYVDGKTTMSLHERKTSIREFYDVLFPSLLQLHGGITDVEERKQKEICDKRYRKKDRTDKGKMSEIDLEREEECGICLEIRNKVVLPTCNHSMCINCYRNWRARSQSCPFCRGSLKRVNSGDLWIYTCSAEIADLPAIYKENLKRLLIYIDKLPLVTSDPNLVPYAPLPR | – | – | possessed ability for enzymatic activity of E3 ubiquitin ligase |
